ChEMBL document CHEMBL4665705 (J Med Chem, 2020)
≈ marks a conversion by molar mass, not a printed value.

Columns and labels:
[1] = biological target: Bromodomain-containing protein 4 (Homo sapiens, UniProt O60885, Y390A)
[2] = biological target: Bromodomain-containing protein 4 (Homo sapiens, UniProt O60885, Y97A)
physchem = conditions: phosphate buffered saline, pH 7.4
[3] = buffer, pH 7.4
in vitro = conditions: PAMPA, pH 7.4
[4] = Genotoxicity in Salmonella typhimurium TA1537 in presence of S9 fraction by Ames test; format: toxicity, subcellular; conditions: salmonella enterica subsp. enterica serovar typhimurium
[5] = Genotoxicity in Salmonella typhimurium TA98 in presence of S9 fraction by Ames test; format: toxicity, subcellular; conditions: salmonella enterica subsp. enterica serovar typhimurium
[6] = Genotoxicity in Escherichia coli WP2uvrA in presence of S9 fraction by Ames test; format: toxicity, subcellular
[7] = Genotoxicity in Salmonella typhimurium TA1535 in presence of S9 fraction by Ames test; format: toxicity, subcellular; conditions: salmonella enterica subsp. enterica serovar typhimurium
[8] = Genotoxicity in Salmonella typhimurium TA1535 in absence of S9 fraction by Ames test; format: toxicity; conditions: salmonella enterica subsp. enterica serovar typhimurium
[9] = Genotoxicity in Escherichia coli WP2uvrA in absence of S9 fraction by Ames test; format: toxicity
[10] = Genotoxicity in Salmonella typhimurium TA100 in presence of S9 fraction by Ames test; format: toxicity, subcellular; conditions: salmonella enterica subsp. enterica serovar typhimurium
[11] = Genotoxicity in Salmonella typhimurium TA1537 in absence of S9 fraction by Ames test; format: toxicity; conditions: salmonella enterica subsp. enterica serovar typhimurium
[12] = Genotoxicity in Salmonella typhimurium TA98 in absence of S9 fraction by Ames test; format: toxicity; conditions: salmonella enterica subsp. enterica serovar typhimurium
[13] = Genotoxicity in Salmonella typhimurium TA100 in absence of S9 fraction by Ames test; format: toxicity; conditions: salmonella enterica subsp. enterica serovar typhimurium
[14] = Drug metabolism in human liver S9 fraction assessed as deacetylation to aniline at 10 uM incubated for 120 mins by FTMS analysis; format: ADME, subcellular; conditions: s9, 2 h
[15] = Drug metabolism in rat liver S9 fraction assessed as deacetylation to aniline at 10 uM incubated for 120 mins by FTMS analysis; format: ADME, subcellular; conditions: s9, 2 h

Compound | IC50 [1] [µM] | IC50 [2] [µM] | solubility kinetic (physchem) [µg/mL] | CHI [3] | Papp (in vitro) [×10⁻⁶ cm/s] | also measured
CC(=O)Nc1ccc(C(=O)NC2CCOCC2)cc1O[C@H](C)c1ccccc1 | > 50.1 | 12.6 | 159 (≈ 416 µM) | 3.8 | 30 | –
Nc1c(O)cc(C(=O)O)cc1F | – | – | – | – | – | Activity [4]: Non-Toxic; Activity [5]: Non-Toxic; Activity [6]: Toxic; Activity [7]: Non-Toxic; Activity [8]: Non-Toxic; Activity [9]: Toxic; Activity [10]: Non-Toxic; Activity [11]: Non-Toxic; Activity [12]: Non-Toxic; Activity [13]: Non-Toxic
CC(=O)Nc1ccc(C(=O)NCCCN)cc1OCc1cccc(Cl)c1 | – | – | 96 (≈ 255 µM) | 2.1 | 1.1 | –
CC(=O)Nc1ccc(C(=O)NCCCN)cc1OCc1ccc(C(N)=O)cc1 | > 50.1 | 10 | 151 (≈ 393 µM) | 0 | < 0.3 | –
CC(=O)Nc1ccc(C(=O)NCCCO)cc1OCc1ccccc1 | > 50.1 | 3.98 | 109 (≈ 318 µM) | 2.4 | 9.4 | –
CC(=O)Nc1ccc(C(=O)NCCC2CCOCC2)cc1OCc1ccccc1 | > 50.1 | 1.58 | 200 (≈ 504 µM) | 4 | 10.4 | –
CC(=O)Nc1ccc(C(=O)N[C@H]2CC[C@H](O)CC2)cc1OCc1ccccc1 | > 50.1 | 1.26 | 174 (≈ 455 µM) | 2.7 | 7.9 | –
CC(=O)Nc1ccc(C(=O)NC2CCOCC2)cc1OCc1ccccc1 | > 50.1 | 2 | 155 (≈ 421 µM) | 3.3 | 19 | –
CC(=O)Nc1ccc(C(=O)NCC2CCNCC2)cc1OCc1ccccc1 | > 50.1 | 0.794 | < 3 | 1.7 | 17 | –
CC(=O)Nc1ccc(C(=O)NCCCN)cc1OCc1cccnc1 | > 50.1 | 15.8 | 130 (≈ 380 µM) | 0.2 | < 0.3 | –
CC(=O)Nc1ccc(C(=O)NCCCN)cc1OCc1ccc(Cl)cc1 | 25.1 | 2 | 108 (≈ 287 µM) | 2.2 | < 0.3 | –
CC(=O)Nc1ccc(C(=O)NCCCN)cc1OCc1ccccc1Cl | 39.8 | 2.51 | 124 (≈ 330 µM) | 1.9 | 1.5 | –
CC(=O)Nc1ccc(C(=O)NCCO)cc1OCc1ccccc1 | > 50.1 | 5.01 | 162 (≈ 493 µM) | 2.3 | 6.8 | –
CCNC(=O)c1cc(OCc2ccccc2)c(NC(C)=O)cc1F | > 50.1 | 1.58 | 159 (≈ 481 µM) | 4.4 | 67 | –
COc1ccc(COc2cc(C(=O)NCCCN)ccc2NC(C)=O)cc1 | 39.8 | 2.51 | 114 (≈ 307 µM) | 1.3 | < 0.3 | –
CC(=O)Nc1ccc(C(=O)NCCCN)cc1OCc1ccc(C(C)C)cc1 | – | – | 114 (≈ 297 µM) | 3.1 | 0.77 | –

Compound | IC50 [1] [µM] | IC50 [2] [µM] | solubility kinetic (physchem) [µg/mL] | CHI [3] | Papp (in vitro) [×10⁻⁶ cm/s] | also measured
CC(=O)Nc1ccc(C(=O)NCCCN)cc1OCc1ccccc1 | 31.6 | 1.58 | 123 (≈ 360 µM) | 1.6 | < 0.3 | –
CC(=O)Nc1ccc(C(=O)N[C@H]2CC[C@H](O)CC2)cc1O[C@@H](C)c1ccccc1 | 39.8 | 0.158 | 170 (≈ 429 µM) | 3.1 | 9.3 | –
CCNC(=O)c1ccc(NC(C)=O)c(OCc2ccccc2)c1 | > 50.1 | 6.31 | 143 (≈ 458 µM) | 3.5 | 32 | –
C[C@H](Oc1cc(C(=O)N[C@H]2CC[C@H](O)CC2)ccc1N)c1ccccc1 | – | – | – | – | – | Activity [4]: Non-Toxic; Activity [5]: Non-Toxic; Activity [6]: Non-Toxic; Activity [7]: Non-Toxic; Activity [8]: Non-Toxic; Activity [9]: Non-Toxic; Activity [10]: Non-Toxic; Activity [11]: Non-Toxic; Activity [12]: Non-Toxic; Activity [13]: Non-Toxic
CC(=O)Nc1ccc(C(=O)NCCCN)cc1OCc1ccncc1 | – | – | 112 (≈ 327 µM) | 0.1 | 0.3 | –
CC(=O)Nc1ccccc1OCc1ccccc1 | – | – | 113 (≈ 468 µM) | 4.9 | 78 | –
CC(=O)Nc1ccc(C(=O)NCCCN)cc1OCC1CCOCC1 | > 50.1 | > 50.1 | 144 (≈ 412 µM) | 0.4 | < 0.3 | –
CC(=O)Nc1ccc(C(=O)NCCCN)cc1OCc1ccccn1 | > 50.1 | 10 | 80 (≈ 234 µM) | 0.3 | < 0.3 | –
CCNC(=O)c1cc(F)c(NC(C)=O)c(OCc2ccccc2)c1 | > 50.1 | 1 | 18 (≈ 54.5 µM) | 3.1 | 11 | –
CC(=O)Nc1ccc(C(=O)NCC2CCOCC2)cc1OCc1ccccc1 | > 50.1 | 2.51 | 174 (≈ 455 µM) | 3.5 | 19 | –
CC(=O)Nc1ccc(C(=O)NCCc2cnc[nH]2)cc1OCc1ccccc1 | – | – | 125 (≈ 330 µM) | 2.2 | 0.8 | –
CCNC(=O)c1ccc(NC(C)=O)c(OCc2ccccc2)c1F | > 50.1 | 20 | 119 (≈ 360 µM) | 2.5 | 46 | –
CC(=O)Nc1ccc(C(=O)NC2CCOCC2)cc1O[C@@H](C)c1ccccc1 | 31.6 | 0.251 | 215 (≈ 562 µM) | 3.7 | 34 | Drug metabolism [14]: Metabolite_Detected; Drug metabolism [15]: Metabolite_Detected
CC(=O)Nc1ccc(C(=O)NCCCN)cc1OCc1ccc(C)cc1 | 31.6 | 2 | 114 (≈ 321 µM) | 2 | 0.65 | –
CC(=O)Nc1ccc(C(=O)NCCCN)cc1OC(C)c1ccccc1 (racemic) | 20 | 0.501 | 159 (≈ 447 µM) | 1.7 | < 0.3 | –
